Measurements: patent publication EP4722207A1, “OXOISOINDOLINYL-SUBSTITUTED TETRAHYDROPYRIMIDINEDIONE DERIVATIVE AND USE THEREOF” (Gluetacs Therapeutics (Shanghai) Co., Ltd., priority 2023, dated 2024)

Key:
Format in all cases: cell-based
Settings in all cases: 24 hours of compound treatment, 50 nM and 500 nM
IKZF1 = molecular target: T1, IKZF1 (Homo sapiens, UniProt Q13422+Q96SW2); test: Western-blot assay, substrate protein degradation in hPBMCs: IKZF1
T1 construct: effects of the compounds of the present disclosure on the expression of target proteins in cells; endogenous in cells; host or cells: human PBMCs (hPBMCs)
T1 sequence (Q13422 whole entry): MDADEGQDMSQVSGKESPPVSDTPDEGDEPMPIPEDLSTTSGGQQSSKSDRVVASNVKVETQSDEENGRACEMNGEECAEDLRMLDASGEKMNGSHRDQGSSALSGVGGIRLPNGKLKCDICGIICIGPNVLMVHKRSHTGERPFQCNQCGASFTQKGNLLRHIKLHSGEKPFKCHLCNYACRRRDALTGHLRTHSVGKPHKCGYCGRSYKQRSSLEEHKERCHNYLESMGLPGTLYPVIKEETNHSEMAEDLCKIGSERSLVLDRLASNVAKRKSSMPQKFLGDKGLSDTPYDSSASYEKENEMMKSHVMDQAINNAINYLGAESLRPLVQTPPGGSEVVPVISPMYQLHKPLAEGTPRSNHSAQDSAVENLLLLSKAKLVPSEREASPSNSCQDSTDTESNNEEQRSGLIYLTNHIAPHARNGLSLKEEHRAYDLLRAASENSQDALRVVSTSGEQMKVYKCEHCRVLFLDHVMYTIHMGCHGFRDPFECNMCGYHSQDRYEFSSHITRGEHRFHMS
T1 sequence (Q96SW2 whole entry): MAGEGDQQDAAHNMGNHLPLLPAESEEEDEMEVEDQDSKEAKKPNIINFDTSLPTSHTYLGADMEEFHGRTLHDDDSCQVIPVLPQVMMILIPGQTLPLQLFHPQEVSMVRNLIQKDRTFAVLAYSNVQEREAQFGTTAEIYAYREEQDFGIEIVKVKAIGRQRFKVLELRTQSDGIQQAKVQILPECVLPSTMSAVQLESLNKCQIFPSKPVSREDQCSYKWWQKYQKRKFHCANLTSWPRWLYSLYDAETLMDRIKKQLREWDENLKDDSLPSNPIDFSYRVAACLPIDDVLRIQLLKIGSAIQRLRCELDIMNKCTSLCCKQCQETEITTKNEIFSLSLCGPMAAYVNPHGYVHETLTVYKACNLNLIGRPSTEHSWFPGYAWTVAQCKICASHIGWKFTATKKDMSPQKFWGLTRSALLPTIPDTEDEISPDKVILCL
T1 sequence (Q16531 whole entry partner): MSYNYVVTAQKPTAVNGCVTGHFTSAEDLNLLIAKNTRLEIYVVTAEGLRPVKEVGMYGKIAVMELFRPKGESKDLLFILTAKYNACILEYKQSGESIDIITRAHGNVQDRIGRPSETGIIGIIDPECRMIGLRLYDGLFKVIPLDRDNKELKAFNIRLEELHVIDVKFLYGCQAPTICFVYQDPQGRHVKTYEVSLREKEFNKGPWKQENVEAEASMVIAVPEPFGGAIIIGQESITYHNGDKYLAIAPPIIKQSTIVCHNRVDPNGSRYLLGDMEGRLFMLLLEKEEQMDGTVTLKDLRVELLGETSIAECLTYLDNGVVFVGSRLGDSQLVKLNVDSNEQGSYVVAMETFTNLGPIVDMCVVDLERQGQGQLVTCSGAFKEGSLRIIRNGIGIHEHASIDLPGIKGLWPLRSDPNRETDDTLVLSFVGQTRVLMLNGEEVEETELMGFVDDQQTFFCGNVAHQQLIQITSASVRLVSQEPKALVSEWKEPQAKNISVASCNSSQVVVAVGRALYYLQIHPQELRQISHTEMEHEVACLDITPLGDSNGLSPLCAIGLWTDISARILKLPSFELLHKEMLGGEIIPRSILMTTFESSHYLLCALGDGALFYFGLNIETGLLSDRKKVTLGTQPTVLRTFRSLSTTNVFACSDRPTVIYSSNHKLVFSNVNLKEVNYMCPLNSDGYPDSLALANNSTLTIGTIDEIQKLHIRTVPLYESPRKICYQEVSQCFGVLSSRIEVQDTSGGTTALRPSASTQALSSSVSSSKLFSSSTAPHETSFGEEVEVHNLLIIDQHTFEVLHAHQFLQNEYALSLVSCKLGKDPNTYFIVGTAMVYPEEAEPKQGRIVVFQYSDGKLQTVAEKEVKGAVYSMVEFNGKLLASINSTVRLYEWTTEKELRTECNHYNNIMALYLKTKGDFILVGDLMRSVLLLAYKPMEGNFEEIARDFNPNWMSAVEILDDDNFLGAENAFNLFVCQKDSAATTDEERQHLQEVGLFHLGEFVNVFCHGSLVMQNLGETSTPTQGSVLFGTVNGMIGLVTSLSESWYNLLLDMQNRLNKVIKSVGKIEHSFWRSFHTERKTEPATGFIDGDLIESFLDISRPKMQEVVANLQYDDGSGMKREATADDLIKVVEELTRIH

IKZF2 = molecular target: T2, IKZF2 (Homo sapiens, UniProt Q96SW2+Q9UKS7); test: Western-blot assay, substrate protein degradation in hPBMCs: IKZF2
T2 construct: effects of the compounds of the present disclosure on the expression of target proteins in cells; endogenous in cells; host or cells: human PBMCs (hPBMCs)
T2 sequence (Q9UKS7 whole entry): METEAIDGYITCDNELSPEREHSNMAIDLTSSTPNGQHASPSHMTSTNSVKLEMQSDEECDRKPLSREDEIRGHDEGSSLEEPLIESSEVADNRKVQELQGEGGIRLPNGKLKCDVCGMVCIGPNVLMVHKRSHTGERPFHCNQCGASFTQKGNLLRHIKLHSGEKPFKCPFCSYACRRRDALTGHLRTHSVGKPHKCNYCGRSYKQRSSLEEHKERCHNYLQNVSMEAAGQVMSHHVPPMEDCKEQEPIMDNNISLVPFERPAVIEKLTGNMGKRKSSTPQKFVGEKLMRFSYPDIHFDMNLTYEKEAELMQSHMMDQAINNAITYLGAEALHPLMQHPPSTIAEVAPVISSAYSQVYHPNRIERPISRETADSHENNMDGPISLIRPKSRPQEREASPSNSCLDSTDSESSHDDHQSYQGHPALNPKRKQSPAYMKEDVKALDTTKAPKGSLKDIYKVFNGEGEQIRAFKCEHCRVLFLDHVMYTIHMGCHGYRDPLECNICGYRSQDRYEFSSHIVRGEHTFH
T2 sequence (Q96SW2 whole entry): as the sequence (Q96SW2 whole entry) above
T2 sequence (Q16531 whole entry partner): as the sequence (Q16531 whole entry partner) above

WEE1 = molecular target: T3, WEE1 (Homo sapiens, UniProt P30291+Q96SW2); test: Western-blot assay, substrate protein degradation in hPBMCs: WEE1
T3 construct: effects of the compounds of the present disclosure on the expression of target proteins in cells; endogenous in cells; host or cells: human PBMCs (hPBMCs)
T3 sequence (P30291 whole entry): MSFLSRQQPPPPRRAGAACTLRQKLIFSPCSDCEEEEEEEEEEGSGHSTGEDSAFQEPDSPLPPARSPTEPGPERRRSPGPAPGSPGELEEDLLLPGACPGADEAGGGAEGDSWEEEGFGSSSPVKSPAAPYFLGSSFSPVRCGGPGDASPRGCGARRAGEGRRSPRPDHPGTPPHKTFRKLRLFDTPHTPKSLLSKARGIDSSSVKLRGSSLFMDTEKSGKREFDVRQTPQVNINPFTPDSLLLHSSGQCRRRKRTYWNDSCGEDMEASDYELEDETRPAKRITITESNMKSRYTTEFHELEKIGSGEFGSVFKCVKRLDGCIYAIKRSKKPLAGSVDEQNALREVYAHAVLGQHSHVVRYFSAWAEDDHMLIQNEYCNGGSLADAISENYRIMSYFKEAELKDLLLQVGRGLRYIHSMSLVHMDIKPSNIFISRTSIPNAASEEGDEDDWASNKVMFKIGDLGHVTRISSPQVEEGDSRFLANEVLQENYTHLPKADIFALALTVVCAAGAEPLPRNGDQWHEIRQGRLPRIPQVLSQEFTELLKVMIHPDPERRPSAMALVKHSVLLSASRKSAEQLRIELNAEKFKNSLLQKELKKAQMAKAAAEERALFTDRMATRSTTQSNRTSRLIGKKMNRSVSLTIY
T3 sequence (Q96SW2 whole entry): as the sequence (Q96SW2 whole entry) above
T3 sequence (Q16531 whole entry partner): as the sequence (Q16531 whole entry partner) above

GSPT1 = molecular target: T4, GSPT1 (Homo sapiens, UniProt P15170+Q96SW2); test: Western-blot assay, substrate protein degradation in hPBMCs: GSPT1
T4 construct: effects of the compounds of the present disclosure on the expression of target proteins in cells; endogenous in cells; host or cells: human PBMCs (hPBMCs)
T4 sequence (P15170 whole entry): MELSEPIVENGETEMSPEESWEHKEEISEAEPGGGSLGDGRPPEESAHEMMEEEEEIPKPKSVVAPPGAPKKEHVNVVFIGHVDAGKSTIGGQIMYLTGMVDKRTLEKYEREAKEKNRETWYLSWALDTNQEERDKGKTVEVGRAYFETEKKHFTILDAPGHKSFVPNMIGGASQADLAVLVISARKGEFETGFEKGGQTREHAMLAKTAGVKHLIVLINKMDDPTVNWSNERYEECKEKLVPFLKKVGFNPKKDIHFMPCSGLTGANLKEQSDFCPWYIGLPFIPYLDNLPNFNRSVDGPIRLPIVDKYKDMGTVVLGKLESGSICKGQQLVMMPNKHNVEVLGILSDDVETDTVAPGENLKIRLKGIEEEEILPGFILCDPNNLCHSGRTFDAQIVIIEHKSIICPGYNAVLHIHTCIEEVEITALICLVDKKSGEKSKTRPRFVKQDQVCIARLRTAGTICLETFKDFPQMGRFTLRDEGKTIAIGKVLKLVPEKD
T4 sequence (Q96SW2 whole entry): as the sequence (Q96SW2 whole entry) above
T4 sequence (Q16531 whole entry partner): as the sequence (Q16531 whole entry partner) above

CK1α = molecular target: T5, CK1α (Homo sapiens, UniProt P48729+Q96SW2); test: Western-blot assay, substrate protein degradation in hPBMCs: CK1α
T5 construct: effects of the compounds of the present disclosure on the expression of target proteins in cells; endogenous in cells; host or cells: human PBMCs (hPBMCs)

IKZF3 = molecular target: T6, IKZF3 (Homo sapiens, UniProt Q96SW2+Q9UKT9); test: Western-blot assay, substrate protein degradation in hPBMCs: IKZF3
T6 construct: effects of the compounds of the present disclosure on the expression of target proteins in cells; endogenous in cells; host or cells: human PBMCs (hPBMCs)
T6 sequence (Q9UKT9 whole entry): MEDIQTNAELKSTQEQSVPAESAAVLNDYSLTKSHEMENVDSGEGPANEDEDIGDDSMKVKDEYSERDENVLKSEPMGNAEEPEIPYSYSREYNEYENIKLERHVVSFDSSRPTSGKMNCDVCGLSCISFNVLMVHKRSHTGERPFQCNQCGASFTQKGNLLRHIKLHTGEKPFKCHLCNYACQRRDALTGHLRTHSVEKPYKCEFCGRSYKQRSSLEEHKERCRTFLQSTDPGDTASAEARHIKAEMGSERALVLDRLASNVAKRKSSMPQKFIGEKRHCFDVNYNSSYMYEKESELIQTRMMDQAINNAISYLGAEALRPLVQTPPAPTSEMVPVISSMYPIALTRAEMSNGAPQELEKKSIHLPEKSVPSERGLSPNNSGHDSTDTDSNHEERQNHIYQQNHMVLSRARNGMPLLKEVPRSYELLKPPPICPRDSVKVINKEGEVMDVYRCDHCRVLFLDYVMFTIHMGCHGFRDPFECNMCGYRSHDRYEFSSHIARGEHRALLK
T6 sequence (Q96SW2 whole entry): as the sequence (Q96SW2 whole entry) above
T6 sequence (Q16531 whole entry partner): as the sequence (Q16531 whole entry partner) above

O=C1CCN(N2Cc3cc(CN4CCC(n5cnc6cc(F)ccc65)CC4)ccc3C2=O)C(=O)N1 [GT-07503, 1-(5-((4-(5-fluoro-1H-benzo[d]imidazol-1-yl)piperidin-1-yl)methyl)-1-oxoisoindolin-2-yl)dihydropyrimidine-2,4(1H,3H)-dione]
substrate protein remaining % IKZF1 (IKZF1): A (0% ≤ substrate protein remaining % ≤ 80%)
substrate protein remaining % IKZF2 (IKZF2): B (80%< substrate protein remaining %≤ 100%)
substrate protein remaining % WEE1 (WEE1): A (0% ≤ substrate protein remaining % ≤ 80%)
substrate protein remaining % GSPT1 (GSPT1): A (0% ≤ substrate protein remaining % ≤ 80%)
substrate protein remaining % CK1α (CK1α): A (0% ≤ substrate protein remaining % ≤ 80%)
substrate protein remaining % IKZF3 (IKZF3): B (80%< substrate protein remaining %≤ 100%)

O=C1CCN(N2Cc3cc(CN4CCC(c5n[nH]c6cc(F)ccc56)CC4)ccc3C2=O)C(=O)N1 [GT-07508, 1-(5-((4-(6-fluoro-1H-indazol-3-yl)piperidin-1-yl)methyl)-1-oxoisoindolin-2-yl)dihydropyrimidine-2,4(1H,3H)-dione]
substrate protein remaining % IKZF1 (IKZF1): A (0% ≤ substrate protein remaining % ≤ 80%)
substrate protein remaining % IKZF2 (IKZF2): A (0% ≤ substrate protein remaining % ≤ 80%)
substrate protein remaining % WEE1 (WEE1): A (0% ≤ substrate protein remaining % ≤ 80%)
substrate protein remaining % GSPT1 (GSPT1): A (0% ≤ substrate protein remaining % ≤ 80%)
substrate protein remaining % CK1α (CK1α): A (0% ≤ substrate protein remaining % ≤ 80%)
substrate protein remaining % IKZF3 (IKZF3): B (80%< substrate protein remaining %≤ 100%)

O=C1CCN(N2C(=O)c3ccc(CN4CCC(c5noc6ccccc56)CC4)cc3C2=O)C(=O)N1 [GT-07522, 5-((4-(benzo[d]isoxazol-3-yl)piperidin-1-yl)methyl)-2-(2,4-dioxotetrahydropyrimidin-1(2H)-yl)isoindoline-1,3-dione]
substrate protein remaining % IKZF1 (IKZF1): A (0% ≤ substrate protein remaining % ≤ 80%)
substrate protein remaining % IKZF2 (IKZF2): A (0% ≤ substrate protein remaining % ≤ 80%)
substrate protein remaining % WEE1 (WEE1): A (0% ≤ substrate protein remaining % ≤ 80%)
substrate protein remaining % GSPT1 (GSPT1): A (0% ≤ substrate protein remaining % ≤ 80%)
substrate protein remaining % CK1α (CK1α): A (0% ≤ substrate protein remaining % ≤ 80%)
substrate protein remaining % IKZF3 (IKZF3): B (80%< substrate protein remaining %≤ 100%)

O=C1CCN(N2C(=O)c3ccc(CN4CCC(c5ccon5)CC4)cc3C2=O)C(=O)N1 [GT-07523, 2-(2,4-dioxotetrahydropyrimidin-1(2H)-yl)-5-((4-(isoxazol-3-yl)piperidin-1-yl)methyl)isoindoline-1,3-dione]
substrate protein remaining % IKZF1 (IKZF1): A (0% ≤ substrate protein remaining % ≤ 80%)
substrate protein remaining % IKZF2 (IKZF2): A (0% ≤ substrate protein remaining % ≤ 80%)
substrate protein remaining % WEE1 (WEE1): A (0% ≤ substrate protein remaining % ≤ 80%)
substrate protein remaining % GSPT1 (GSPT1): A (0% ≤ substrate protein remaining % ≤ 80%)
substrate protein remaining % CK1α (CK1α): A (0% ≤ substrate protein remaining % ≤ 80%)
substrate protein remaining % IKZF3 (IKZF3): B (80%< substrate protein remaining %≤ 100%)

O=C1CCN(N2C(=O)c3ccc(CN4CCN(c5noc6cc(F)ccc56)CC4)cc3C2=O)C(=O)N1 [GT-07524, 2-(2,4-dioxotetrahydropyrimidin-1(2H)-yl)-5-((4-(6-fluorobenzo[d]isoxazol-3-yl)piperazin-1-yl)methyl)isoindoline-1,3-dione]
substrate protein remaining % IKZF1 (IKZF1): A (0% ≤ substrate protein remaining % ≤ 80%)
substrate protein remaining % IKZF2 (IKZF2): A (0% ≤ substrate protein remaining % ≤ 80%)
substrate protein remaining % WEE1 (WEE1): A (0% ≤ substrate protein remaining % ≤ 80%)
substrate protein remaining % GSPT1 (GSPT1): A (0% ≤ substrate protein remaining % ≤ 80%)
substrate protein remaining % CK1α (CK1α): B (80%< substrate protein remaining %≤ 100%)
substrate protein remaining % IKZF3 (IKZF3): B (80%< substrate protein remaining %≤ 100%)

O=C1CCN(N2C(=O)c3ccc(CN4CCN(c5noc6ccncc56)CC4)cc3C2=O)C(=O)N1 [GT-07525, 2-(2,4-dioxotetrahydropyrimidin-1(2H)-yl)-5-((4-(isoxazolo[4,5-c]pyridin-3-yl)piperazin-1-yl)methyl)isoindoline-1,3-dione]
substrate protein remaining % IKZF1 (IKZF1): B (80%< substrate protein remaining %≤ 100%)
substrate protein remaining % IKZF2 (IKZF2): B (80%< substrate protein remaining %≤ 100%)
substrate protein remaining % WEE1 (WEE1): B (80%< substrate protein remaining %≤ 100%)
substrate protein remaining % GSPT1 (GSPT1): A (0% ≤ substrate protein remaining % ≤ 80%)
substrate protein remaining % CK1α (CK1α): A (0% ≤ substrate protein remaining % ≤ 80%)
substrate protein remaining % IKZF3 (IKZF3): B (80%< substrate protein remaining %≤ 100%)

O=C1CCN(N2C(=O)c3ccc(CN4CCN(c5nsc6cc(F)ccc56)CC4)cc3C2=O)C(=O)N1 [GT-07526, 2-(2,4-dioxotetrahydropyrimidin-1(2H)-yl)-5-((4-(6-fluorobenzo[d]isothiazol-3-yl)piperazin-1-yl)methyl)isoindoline-1,3-dione]
substrate protein remaining % IKZF1 (IKZF1): B (80%< substrate protein remaining %≤ 100%)
substrate protein remaining % IKZF2 (IKZF2): B (80%< substrate protein remaining %≤ 100%)
substrate protein remaining % WEE1 (WEE1): B (80%< substrate protein remaining %≤ 100%)
substrate protein remaining % GSPT1 (GSPT1): A (0% ≤ substrate protein remaining % ≤ 80%)
substrate protein remaining % CK1α (CK1α): A (0% ≤ substrate protein remaining % ≤ 80%)
substrate protein remaining % IKZF3 (IKZF3): B (80%< substrate protein remaining %≤ 100%)

O=C1CCN(N2C(=O)c3ccc(CN4CCN(c5n[nH]c6cc(F)ccc56)CC4)cc3C2=O)C(=O)N1 [GT-07527, 2-(2,4-dioxotetrahydropyrimidin-1(2H)-yl)-5-((4-(6-fluoro-1H-indazol-3-yl)piperazin-1-yl)methyl)isoindoline-1,3-dione]
substrate protein remaining % IKZF1 (IKZF1): B (80%< substrate protein remaining %≤ 100%)
substrate protein remaining % IKZF2 (IKZF2): B (80%< substrate protein remaining %≤ 100%)
substrate protein remaining % WEE1 (WEE1): B (80%< substrate protein remaining %≤ 100%)
substrate protein remaining % GSPT1 (GSPT1): A (0% ≤ substrate protein remaining % ≤ 80%)
substrate protein remaining % CK1α (CK1α): A (0% ≤ substrate protein remaining % ≤ 80%)
substrate protein remaining % IKZF3 (IKZF3): B (80%< substrate protein remaining %≤ 100%)

O=C1CCN(N2C(=O)c3ccc(CN4CCN(c5c[nH]c6ncccc56)CC4)cc3C2=O)C(=O)N1 [GT-07528, 5-((4-(1H-pyrrolo[2,3-b]pyridin-3-yl)piperazin-1-yl)methyl)-2-(2,4-dioxotetrahydropyrimidin-1(2H)-yl)isoindoline-1,3-dione]
substrate protein remaining % IKZF1 (IKZF1): B (80%< substrate protein remaining %≤ 100%)
substrate protein remaining % IKZF2 (IKZF2): B (80%< substrate protein remaining %≤ 100%)
substrate protein remaining % WEE1 (WEE1): B (80%< substrate protein remaining %≤ 100%)
substrate protein remaining % GSPT1 (GSPT1): A (0% ≤ substrate protein remaining % ≤ 80%)
substrate protein remaining % CK1α (CK1α): A (0% ≤ substrate protein remaining % ≤ 80%)
substrate protein remaining % IKZF3 (IKZF3): B (80%< substrate protein remaining %≤ 100%)

O=C1CCN(N2C(=O)c3ccc(CN4CCC(n5cnc6cc(F)ccc65)CC4)cc3C2=O)C(=O)N1 [GT-07529, 2-(2,4-dioxotetrahydropyrimidin-1(2H)-yl)-5-((4-(5-fluoro-1H-benzo[d]imidazol-1-yl)piperidin-1-yl)methyl)isoindoline-1,3-dione]
substrate protein remaining % IKZF1 (IKZF1): B (80%< substrate protein remaining %≤ 100%)
substrate protein remaining % IKZF2 (IKZF2): B (80%< substrate protein remaining %≤ 100%)
substrate protein remaining % WEE1 (WEE1): B (80%< substrate protein remaining %≤ 100%)
substrate protein remaining % GSPT1 (GSPT1): A (0% ≤ substrate protein remaining % ≤ 80%)
substrate protein remaining % CK1α (CK1α): A (0% ≤ substrate protein remaining % ≤ 80%)
substrate protein remaining % IKZF3 (IKZF3): B (80%< substrate protein remaining %≤ 100%)

O=C1CCN(N2C(=O)c3ccc(CN4CCC(c5n[nH]c6cc(F)ccc56)CC4)cc3C2=O)C(=O)N1 [GT-07530, 2-(2,4-dioxotetrahydropyrimidin-1(2H)-yl)-5-((4-(6-fluoro-1H-indazol-3-yl)piperidin-1-yl)methyl)isoindoline-1,3-dione]
substrate protein remaining % IKZF1 (IKZF1): B (80%< substrate protein remaining %≤ 100%)
substrate protein remaining % IKZF2 (IKZF2): B (80%< substrate protein remaining %≤ 100%)
substrate protein remaining % WEE1 (WEE1): A (0% ≤ substrate protein remaining % ≤ 80%)
substrate protein remaining % GSPT1 (GSPT1): A (0% ≤ substrate protein remaining % ≤ 80%)
substrate protein remaining % CK1α (CK1α): A (0% ≤ substrate protein remaining % ≤ 80%)
substrate protein remaining % IKZF3 (IKZF3): B (80%< substrate protein remaining %≤ 100%)

O=C1CCN(N2Cc3cc(CN4CCN(c5n[nH]c6cc(F)ccc56)CC4)ccc3C2=O)C(=O)N1 [GT-07545, 1-(5-((4-(6-fluoro-1H-indazol-3-yl)piperazin-1-yl)methyl)-1-oxoisoindolin-2-yl)dihydropyrimidine-2,4(1H,3H)-dione]
substrate protein remaining % IKZF1 (IKZF1): A (0% ≤ substrate protein remaining % ≤ 80%)
substrate protein remaining % IKZF2 (IKZF2): B (80%< substrate protein remaining %≤ 100%)
substrate protein remaining % WEE1 (WEE1): A (0% ≤ substrate protein remaining % ≤ 80%)
substrate protein remaining % GSPT1 (GSPT1): A (0% ≤ substrate protein remaining % ≤ 80%)
substrate protein remaining % CK1α (CK1α): A (0% ≤ substrate protein remaining % ≤ 80%)
substrate protein remaining % IKZF3 (IKZF3): B (80%< substrate protein remaining %≤ 100%)

O=C1CCN(N2Cc3cc(CN4CCC(c5c[nH]c6ncccc56)CC4)ccc3C2=O)C(=O)N1 [GT-07576, 1-(5-((4-(1H-pyrrolo[2,3-b]pyridin-3-yl)piperidin-1-yl)methyl)-1-oxoisoindolin-2-yl)dihydropyrimidine-2,4(1H,3H)-dione]
substrate protein remaining % IKZF1 (IKZF1): A (0% ≤ substrate protein remaining % ≤ 80%)
substrate protein remaining % IKZF2 (IKZF2): A (0% ≤ substrate protein remaining % ≤ 80%)
substrate protein remaining % WEE1 (WEE1): A (0% ≤ substrate protein remaining % ≤ 80%)
substrate protein remaining % GSPT1 (GSPT1): A (0% ≤ substrate protein remaining % ≤ 80%)
substrate protein remaining % CK1α (CK1α): A (0% ≤ substrate protein remaining % ≤ 80%)
substrate protein remaining % IKZF3 (IKZF3): B (80%< substrate protein remaining %≤ 100%)
